The values that follow come from patent US5736523A, “Antineoplastic heteronapthoquinones” (Biochem Pharma Inc., priority 1995, dated 1998).

Experiment [1] relates to T47D (Ductal carcinoma of breast). In words: In vitro cytotoxicity, microculture tetrazolium (MTT) assay, T47D. It is filed as cell-based, human. The note with it: read-out: IC50. On the procedure:
(§1) In Vitro Cytotoxicity--Microculture Tetrazolium Assay
(§2) The microculture tetrazolium assay was used to test in vitro cytotoxicity. This assay is described in Plumb, J. A. et al., 1989 Cancer Research 49, 4435-4440, which is herein incorporated by reference. The cytotoxicity of compounds towards tumor cells is measured in vitro using the assay. This assay method is based upon the ability of live, but not dead cells to reduce the yellow water soluble dye 3-(4;5-dimethylthiazol-2-yl)-2,5-diphenyltetrazolium bromide (MTT) to its water insoluble purple formazan product.
(§3) Human Tumor Cell lines, used were:
T47D (Ductal carcinoma of breast)--ATCC catalog #HTB-133.
(§4) The cells were maintained in exponential growth in culture in minimal essential media (MEM) supplemented with non-essential amino acids, and containing 15% (v/v) fetal bovine serum, 5 mM L-glutamine, 1 mM sodium pyruvate, and 0.1 U/ml insulin. All cell lines were grown at 37° C. in an atmosphere of 5% CO2 in air.
(§5) Test compounds: 20 mM in DMSO and diluted to a final concentration of 200 μM in culture medium before use.
(§6) The following is the generic description of the assay method. It should be noted that although the conditions described work well with the cells listed above, the initial plating density and the MTT concentration used should be verified for each new cell line used to test compounds.
(§7) For each assay, doxorubicin is included as an inter-assay standard. This allows us to monitor the behaviour of the assay in general, and in particular, to check that the SKVLB line has maintained its resistant phenotype.
(§8) The plate layout is done in the following manner: The assays are carried out in 96-well (8 well×12 well) microtiter plates. Serial dilutions of the compound are tested along the length of the plate. A 1:3 serial dilution of compound in culture medium covers a concentration range from 100 μM to 1.7 nM. Each concentration of compound is tested in quadruplet, allowing two compounds to be tested per plate. Wells containing no cells (blank) and cells with no test compound (control) are included on each plate.
(§9) Cells are plated out in 100 μl of culture medium in the microtiter plates at a density of around 1,500-4,000 cells per well. The plates are incubated overnight to allow the cells to become adherent after which the test compound is added (100 μl of appropriate dilution per well). The cells are incubated with test compound at 37° C. for 48 h after which the compound is replaced with fresh medium. After a further 48 h incubation at 37° C., 50 μl of MTT solution (2 mg/ml) is added to each well. The plates are incubated in the dark for 4 h at 37° C. after which the medium is removed. The MTT formazan product is extracted from the cells by the addition of 200 μl DMSO followed by 50 μl of Sorensen's buffer. The plates are shaken briefly and the absorbance at 570 nm is read using a Molecular Devices UV max plate reader. Curves are fit to the MTT assay data using a four parameter logistic equation, and the data are normalized to fit a 0% to 100% survival scale.

The next experiment relates to MCF-7. Kind of experiment: In vitro antitumor activity, MCF-7. The class given is cell-based. On the procedure:
as §2, §8
(§10) Cells are plated out in 100 μl of culture medium in the microtiter plates at a density of around 1,500-4,000 cells per well. […] The plates are shaken briefly and the absorbance at 570 nm is read using a Molecular Devices UV max plate reader. […]

The subject of another experiment is MAT-B/ADR. Kind of experiment: In vitro antitumor activity, MAT-B/ADR. It is filed as cell-based. Here is the method:
as §2, §8, §10

The test system of another experiment is MCF-7/ADR. In words: In vitro antitumor activity, MCF-7/ADR (adriamycin resistant). It is filed as cell-based. Here is the method:
as §2, §8, §10

Experiment [2] has as its system SKVLB (Ovarian; multidrug resistant). In words: In vitro cytotoxicity, microculture tetrazolium (MTT) assay, SKVLB. It is filed as cell-based, human. To be noted: for IC50: SKVLB, multidrug resistant, read-out: IC50; for VLB/OV3: ratio SKVLB / SKOV3. In a few lines: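 Multidrug-resistant ovarian SKVLB cells exposed 48 h at 37 °C to 1:3 serial dilutions (100 μM–1.7 nM), then 48 h in fresh medium. MTT reduction read at 570 nm after DMSO extraction; four-parameter logistic fit normalized to 0–100% survival.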

For experiment [3], the system named is HT 29 (Colon adenocarcinoma). Kind of experiment: In vitro cytotoxicity, microculture tetrazolium (MTT) assay, HT 29. The note with it: read-out: IC50. The class given is cell-based, human. On the procedure:
as §1, §2, §3
HT 29 (Colon adenocarcinoma) ATCC catalog #HTB-38.
as §4, §5, §6, §7, §8, §9

In experiment [4] the test system is SKOV3 (Ovarian adenocarcinoma). In words: In vitro cytotoxicity, microculture tetrazolium (MTT) assay, SKOV3. It is filed as cell-based, human. To be noted: read-out: IC50. On the procedure:
as §1, §2, §3
SKOV3 (Ovarian adenocarcinoma)--provided by Dr. V. Ling,
as §4, §5, §6, §7, §8, §9

A further experiment concerns MAT-B. In words: In vitro antitumor activity, MAT-B. It is filed as cell-based. Here is the method:
as §2, §8, §10

In a further experiment the test system is Lox (Melanoma). In words: In vitro cytotoxicity, microculture tetrazolium (MTT) assay, Lox. It is filed as cell-based, human. To be noted: read-out: IC50. Here is the method:
as §1, §2, §3
Lox (Melanoma)--Southern Research Institute.
as §4, §5, §6, §7, §8, §9

The conditions of experiment [5]: literature; cited from earlier work.
The conditions of experiment [6]: Med. Res. Rev. 1981; cited from earlier work.
The conditions of experiment [7]: Med. Res. Rev. 1981; cited from earlier work. The source holds these as a separate data set.

Where two headings read alike, the source gives them in different places.

By IC50 is commonly meant the concentration at which inhibition is half-maximal. Take `CC(=O)[C@H]1CC2=C(C(=O)c3ccccc3C2=O)[C@H](OC2C[C@H](NC(=O)C(F)(F)F)[C@H](O)[C@H](C)O2)O1` (stereo partly drawn) [BCH1146, (1'S,1S,3R)-Methyl (5,10-dioxo-1-(2',3',6'-trideoxy-3'-trifluoroacetamido-4'-hydroxy-L-lyxohexopyranose)-3,4,5,10-tetrahydronaphtho [2,3-C]pyran-3-yl) ketone]: the IC50 in [1] turned out to be 5870 nM; with MCF-7, 44 nM; in the experiment on MAT-B/ADR, 560 nM; with MCF-7/ADR (MCF-7/ADR) it was 190 nM; in experiment [2] it was 6970 nM; in experiment [3] (HT29), 910 nM. Further, the IC50 in experiment [4] (SKOV3) is 891 nM; in the experiment on MAT-B it was 460 nM; in the experiment on Lox (Melanoma), 3820 nM. In addition, in the experiment with MCF-7 (breast cancer), the “potency in breast cancer, MCF-7, against adriamycin” value is “less potent than adriamycin”. Moreover, the “effectiveness in the sensitive and adriamycin resistant cell line” value in the experiment on MCF-7/ADR (MCF-7 sensitive vs adriamycin resistant) is “nearly as effective in the sensitive and adriamycin resistant cell line”. Moreover, the VLB/OV3 in experiment [2] was determined as 7.82.
`CC(=O)C1CC2=C(C(=O)c3ccccc3C2=O)C(OC2CC(NC(=O)C(F)(F)F)C(NC(=O)C(F)(F)F)C(C)O2)O1` [BCH2104, (1R,3S,1'S) and (1S,3R,1'S)-Methyl-(1-[2',3',4',6'-tetradeoxy-3',4'-bis-trifluoroacetamido-L-arabinohexopyranose]-5,10-dioxo-3,4,5,10-tetrahydronaphthaleno-[2,3-c]pyran-3-yl) ketone]: the IC50 was 613 nM in [1]; 1100 nM in experiment [2]; 171 nM in [3] (HT29); 210 nM in experiment [4] (SKOV3); 240 nM in the experiment on Lox (Melanoma). The VLB/OV3 in [2] came out at 5.05.
On to `CC(=O)[C@H]1CC2=C(C(=O)c3ccccc3C2=O)[C@H](O[C@H]2C[C@H](NC(=O)C(F)(F)F)[C@H](OC(=O)CBr)[C@H](C)O2)O1` [BCH2105, (1'-S,1-S,3-R)-methyl-(1-[2',3',4',6' tetradeoxy-3'-trifluoroacetamido-4'-O-(2-bromo-acetyl)-L-lyxopyranose]-5,10-dioxo-3,4,5,10 tetrahydronaphtho-[2,3-c]pyran-3-yl) ketone], for which the IC50 amounted to 19 nM in experiment [1]; 370 nM in experiment [2]; 6.9 nM in experiment [3] (HT29); 3 nM in experiment [4] (SKOV3); 25 nM in the experiment on Lox (Melanoma). The VLB/OV3 in experiment [2] is given as 123.
With `CC(=NO)[C@@H]1CC2=C(C(=O)c3ccccc3C2=O)[C@@H](O[C@H]2C[C@H](NC(=O)C(F)(F)F)[C@H](O)[C@H](C)O2)O1` [BCH2115, (1'S,1R,3S)-3 (oximoethyl)-5,10-dioxo-1 (2,3,6-trideoxy-3-trifluoroacetamido-L-lyxohexopyranose)-3,4,5,10-tetrahydro-1H-naphtho-(2,3-c)-pyran], the IC50 was 5300 nM in experiment [1] (Homo sapiens); over 100000 nM in experiment [2] (Homo sapiens); 5600 nM in [3] (Homo sapiens, HT-29, HT29); 2300 nM in experiment [4] (Homo sapiens, SK-OV-3, SKOV3); 4000 nM in the experiment with Lox (Melanoma) (Homo sapiens). In addition, the VLB/OV3 in experiment [2] is given as over 50.
Consider `CC(=O)C1CC2=C(C(=O)c3ccccc3C2=O)C(OC2CC(NC(=O)C(F)(F)F)C(O)C(C)O2)O1` (stereo not drawn) [BCH2144], for which the IC50 in experiment [1] stood at 7220 nM; in experiment [2] it was 16100 nM; in experiment [3] (HT29), 5930 nM; in experiment [4] (SKOV3), 21400 nM; in the experiment with Lox (Melanoma) it was 3280 nM. Also, the VLB/OV3 in experiment [2] stood at 0.75.
For the molecule `COC1OC(C(=O)NCCCn2ccnc2)=CC2=C1C(=O)c1ccccc1C2=O` (stereo not drawn) [BCH2157, (3-N-hydrochloroimidazolylpropyl)-1-methoxy-5,10-dioxo-5,10-dihydro-1H-naphtho-[2,3-c]-pyran-3-carboxamide], the IC50 in [1] (Homo sapiens) amounted to 233 nM; in experiment [2] (Homo sapiens), 3390 nM; in experiment [3] (Homo sapiens, HT-29, HT29), 1230 nM; in [4] (Homo sapiens, SK-OV-3, SKOV3), 187 nM; in the experiment with Lox (Melanoma) (Homo sapiens), 15.5 nM. The VLB/OV3 in experiment [2] came out at 18.13.
Turning to `CC1O[C@H]2CC(=O)O[C@H]2C2=C1C(=O)c1c(O)c3c(c(O)c1C2=O)[C@H]1C[C@@H](O)[C@]3(O)[C@@H](C)O1` (stereo partly drawn) [Granaticin], in [5], the antitumor activity result is given as “show antitumor activity”.
On to `C[C@H]1O[C@@H]2CC(=O)O[C@@H]2C2=C1C(=O)c1c(O)cccc1C2=O` [kalafungin], for which the antibacterial activity result in experiment [6] is reported as “potent antibacterial”. Also, in [7], the antifungal activity entry was “antifungal activity”.
As to `C[C@@H]1O[C@@H](CC(=O)O)CC2=C1C(=O)c1c(O)cccc1C2=O` [nanaomycin A], in [6], the antibacterial activity result is “potent antibacterial”. For the same molecule, the antifungal activity entry in experiment [7] is reported as “antifungal activity”.
With `COC(=O)C1CC2=C(C(=O)c3c(cc4ccccc4c3O)C2=O)[C@@H](O[C@H]2C[C@H](NC(=O)C(F)(F)F)[C@H](O)[C@H](C)O2)O1` (stereo partly drawn) [pyranoanthraquinone (H)], in experiment [5], the antitumor activity result is “possess antitumor activity”.
Consider “(1S,2'S,3R) and (1R,2'S,3S)-methyl-(1-[O-prolinol]-3,4,5,12-tetrahydronaphtho-[2,3-C] pyran-3-yl) ketone hydrochloride salt [BCH1658]”, for which the IC50 in [1] worked out at 494 nM; in experiment [2], 1470 nM; in experiment [3] (HT29) it was 661 nM; in experiment [4] (SKOV3), 233 nM; in the experiment with Lox (Melanoma), 316 nM. Further, in experiment [2], the VLB/OV3 is reported as 6.31.
As to “Methyl-(6-hydroxy-5,10-dioxo-3,4,5,10-tetrahydronaphtho-[2,3-c]-pyran-3-yl)ketone and methyl-(9-hydroxy-5,10-dioxo-3,4,5,10-tetrahydronaphtho-[2,3-c]-pyran-3-yl) ketone [BCH2062]”, the half-maximal inhibitory concentration (IC50) was 776 nM in experiment [1]; 842 nM in [2]; 1140 nM in experiment [3] (HT29); 810 nM in experiment [4] (SKOV3); 354 nM in the experiment on Lox (Melanoma). For the same molecule, the VLB/OV3 in experiment [2] turned out to be 1.04.
